Activity calls are given as the source filed them. No cut-off for these calls is given here. Residues, ends and D or L forms follow the SMILES beside them. *: point of attachment. Octanoyl = CCCCCCCC(=O)*
Columns and labels:
Type in all cases: functional, cell-based
LM [1] = experiment: Induction of NGF secretion in LM cells at 50 uM after 24 hrs; conditions: Mus musculus
KB = experiment: Cytotoxicity against human KB cell line by [3H] thymidine incorporation assay
PC-12 = experiment: Cytotoxicity against rat PC12 cell line by [3H] thymidine incorporation assay; conditions: PC-12, 24 h
LM [2] = experiment: Cytotoxicity against mouse LM cell line by [3H] thymidine incorporation assay

| SMILES | Activity (LM [1]) | IC50 (KB) [µM] | IC50 (PC-12) [µM] | IC50 (LM [2]) [µM] |
| --- | --- | --- | --- | --- |
| CCCCCCCC(=O)N[C@@H](CC(N)=O)C(=O)N[C@@H](CCC(N)=O)C(=O)N[C@H](C=O)CC(C)C (Octanoyl-Asn-Gln-Leu-aldehyde) | Active | 4.83 | 1.67 | 3.33 |
| CCCCCCCCC[C@@H](O)CC(=O)N[C@@H](CC(N)=O)C(=O)N[C@@H](CCC(N)=O)C(=O)N[C@H](C=O)CC(C)C [FELLUTAMIDE B] | Active | 0.349 | 0.437 | 0.482 |

Source: ChEMBL document CHEMBL1138927, “Neurotrophic peptide aldehydes: solid phase synthesis of fellutamide B and a simplified analog” (Bioorg Med Chem Lett, 2006)
